“And” between values parts separate entries of the source, which are not always exact repeats. Identical values can stand only once. Like-named read-outs stand apart in the source and are kept apart here.
Columns and labels:
[1] = biological target: T1, SFRP-1 (Homo sapiens, UniProt Q8N474); assay: Fluorescence polarization binding assay (competitive displacement of a probe compound from SFRP-1); details: fluorescence anisotropy, 45 nM SFRP-1, 20 nM probe;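 further: test compound competes with a fluorescent probe held by SFRP-1, seen as a drop in probe anisotropy after incubation in darkness, with anisotropy as function of rising compound dose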
T1 sequence (Q8N474 32-314): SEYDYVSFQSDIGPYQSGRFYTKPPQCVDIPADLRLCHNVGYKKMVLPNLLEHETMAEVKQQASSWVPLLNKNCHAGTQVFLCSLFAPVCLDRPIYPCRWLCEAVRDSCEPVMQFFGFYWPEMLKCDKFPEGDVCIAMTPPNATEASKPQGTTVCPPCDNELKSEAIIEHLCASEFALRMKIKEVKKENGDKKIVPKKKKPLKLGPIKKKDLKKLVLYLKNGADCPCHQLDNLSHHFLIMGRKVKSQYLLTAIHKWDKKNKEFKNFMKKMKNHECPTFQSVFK

[2] = biological target: T1, SFRP-1; assay: Cell-based assay for in vitro measurement of SFRP-1/SARP2 antagonist activity (U2OS cells co-transfected with 16x TCF-tk-Luciferase reporter, Wnt and hSFRP-1); details: U2OS;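 further: U2OS cells co-transfected with a TCF-tk luciferase reporter, a Wnt vector, hSFRP-1 or empty vector and CMV-βgal, luciferase luminescence read in cell lysates alongside βgal activity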
[3] = read-out: Fold Induction with SFRP-1, Conc 15 μM, with SFRP-1, fold induction over SFRP-1 control, single dose
[4] = read-out: Fold Induction without SFRP-1, Conc 15 μM, without SFRP-1, single dose
[5] = read-out: Fold Induction with SFRP-1, Conc 15 μM, single dose, luciferase reporter, fold induction over SFRP-1 control, cells with SFRP-1
[6] = read-out: Fold Induction without SFRP-1, Conc 15 μM, single dose, luciferase reporter, cells without SFRP-1 (specificity control)

Row | IC50 [1] | fold induction at 15 µM [2, 3] | fold induction at 15 µM [2, 4] | fold induction at 15 µM [2, 5] | fold induction at 15 µM [2, 6] | Structure (SMILES)
1 | 3 µM | 2.1 | 1 | – | – | COc1ccc(C(=O)N2CCC(NS(=O)(=O)c3cc(S(=O)(=O)c4ccccc4)ccc3C)CC2)cc1OC [Example 464, N-[1-(3,4-dimethoxybenzoyl)piperidin-4-yl]-2-methyl-5-(phenylsulfonyl)benzenesulfonamide]
2 | 4 µM | 1.9 | 1.1 | – | – | Cc1ccc(S(=O)(=O)c2ccccc2)cc1S(=O)(=O)NC1CCN(C(=O)c2cccc(C(F)(F)F)c2)CC1 [Example 465, 2-methyl-5-(phenylsulfonyl)-N-{1-[3-(trifluoromethyl)benzoyl]piperidin-4-yl}benzenesulfonamide]
3 | 1.7 µM | 1.7 | 1.1 | – | – | Cc1ccc(S(=O)(=O)c2ccccc2)cc1S(=O)(=O)NC1CCN(C(=O)c2ccc(Cl)cc2)CC1 [Example 466, N-[1-(4-chlorobenzoyl)piperidin-4-yl]-2-methyl-5-(phenylsulfonyl)benzenesulfonamide]
4 | 1.9 µM | 2.3 | 1 | – | – | COc1ccc(C(=O)N2CCC(NS(=O)(=O)c3cc(S(=O)(=O)c4ccccc4)ccc3C)CC2)cc1 [Example 467, N-[1-(4-methoxybenzoyl)piperidin-4-yl]-2-methyl-5-(phenylsulfonyl)benzenesulfonamide]
5 | 1 µM | 2 | 1.2 | – | – | Cc1ccc(C(=O)N2CCC(NS(=O)(=O)c3cc(S(=O)(=O)c4ccccc4)ccc3C)CC2)cc1 [Example 468, 2-methyl-N-[1-(4-methylbenzoyl)piperidin-4-yl]-5-(phenylsulfonyl)benzenesulfonamide]
6 | 2.2 µM | 2.1 | 1.1 | – | – | Cc1ccc(S(=O)(=O)c2ccccc2)cc1S(=O)(=O)NC1CCN(C(=O)C2CCCCC2)CC1 [Example 471, N-[1-(cyclohexylcarbonyl)piperidin-4-yl]-2-methyl-5-(phenylsulfonyl)benzenesulfonamide]
7 | 0.8 µM | 1.4 | 1 | – | – | CC(C)c1ccc(S(=O)(=O)c2cccc3c(N(C)C)cccc23)cc1S(=O)(=O)NCCc1ccccn1 [Example 474, 5-{[5-(dimethylamino)-1-naphthyl]sulfonyl}-2-isopropyl-N-(2-pyridin-2-ylethyl)benzenesulfonamide]
8 | 1.4 µM | 2 | 1 | – | – | Cc1ccc(S(=O)(=O)c2ccccc2)cc1S(=O)(=O)NC1CCN(C(=O)c2ccc(C#N)cc2)CC1 [Example 476, N-[1-(4-cyanobenzoyl)piperidin-4-yl]-2-methyl-5-(phenylsulfonyl)benzenesulfonamide]
9 | 2.2 µM | 2.1 | 1 | – | – | Cc1ccc(S(=O)(=O)c2ccccc2)cc1S(=O)(=O)NC1CCN(C(=O)c2cccc(C#N)c2)CC1 [Example 477, N-[1-(3-cyanobenzoyl)piperidin-4-yl]-2-methyl-5-(phenylsulfonyl)benzenesulfonamide]
10 | 1.3 µM | 2.3 | 1 | – | – | Cc1ccc(S(=O)(=O)c2ccccc2)cc1S(=O)(=O)NC1CCN(S(C)(=O)=O)CC1 [Example 478, 2-methyl-N-[1-(methylsulfonyl)piperidin-4-yl]-5-(phenylsulfonyl)benzenesulfonamide]
11 | 2.9 µM | 1.7 | 1 | – | – | CC(=O)Nc1ccc(C(=O)N2CCC(NS(=O)(=O)c3cc(S(=O)(=O)c4ccccc4)ccc3C)CC2)cc1 [Example 480, N-(4-{[4-({[2-methyl-5-(phenylsulfonyl)phenyl]sulfonyl}amino)piperidin-1-yl]carbonyl}phenyl)acetamide]
12 | 1.2 µM | 1.8 | 1 | – | – | Cc1ccc(S(=O)(=O)c2ccccc2)cc1S(=O)(=O)NC1CCN(S(=O)(=O)c2cn(C)cn2)CC1 [Example 481, 2-methyl-N-{1-[(1-methyl-1H-imidazol-4-yl)sulfonyl]piperidin-4-yl}-5-(phenylsulfonyl)benzenesulfonamide]
13 | 0.8 µM | 3.2 | 1.1 | – | – | Cc1ccc(S(=O)(=O)c2ccccc2)cc1S(=O)(=O)NC1CCN(S(=O)(=O)c2cccs2)CC1 [Example 482, 2-methyl-5-(phenylsulfonyl)-N-[1-(2-thienylsulfonyl)piperidin-4-yl]benzenesulfonamide]
14 | 1.5 µM | 2.4 | 1.1 | – | – | Cc1ccc(S(=O)(=O)c2ccccc2)cc1S(=O)(=O)NC1CCN(C(=O)c2ccc3c(c2)OCO3)CC1 [Example 484, N-[1-(1,3-benzodioxol-5-ylcarbonyl)piperidin-4-yl]-2-methyl-5-(phenylsulfonyl)benzenesulfonamide]
15 | 1.7 µM | – | – | 2.5 | 1 | Cc1ccc(S(=O)(=O)c2ccccc2)cc1S(=O)(=O)NC1CCN(C(=O)c2ccno2)CC1 [Example 485, N-[1-(isoxazol-5-ylcarbonyl)piperidin-4-yl]-2-methyl-5-(phenylsulfonyl)benzenesulfonamide]
16 | 5 µM | – | – | 2.1 | 1.1 | Cc1ccc(S(=O)(=O)c2ccccc2)cc1S(=O)(=O)NC1CCN(C(=O)CN(C)C)CC1 [Example 486, N-[1-(N,N-dimethylglycyl)piperidin-4-yl]-2-methyl-5-(phenylsulfonyl)benzenesulfonamide]
17 | 0.5 µM | – | – | 2.1 | 1.1 | C#CCOC(=O)N1CCC(NS(=O)(=O)c2cc(S(=O)(=O)c3ccccc3)ccc2C)CC1 [Example 487, prop-2-yn-1-yl 4-({[2-methyl-5-(phenylsulfonyl)phenyl]sulfonyl}amino)piperidine-1-carboxylate]
18 | 2.1 µM | – | – | 2 | 0.9 | COC(=O)N1CCC(NS(=O)(=O)c2cc(S(=O)(=O)c3ccccc3)ccc2C)CC1 [Example 488, methyl 4-({[2-methyl-5-(phenylsulfonyl)phenyl]sulfonyl}amino)piperidine-1-carboxylate]
19 | 1 µM | – | – | 2.4 | 1.1 | COc1ccccc1OC(=O)N1CCC(NS(=O)(=O)c2cc(S(=O)(=O)c3ccccc3)ccc2C)CC1 [Example 489, 2-methoxyphenyl 4-({[2-methyl-5-(phenylsulfonyl)phenyl]sulfonyl}amino)piperidine-1-carboxylate]
20 | 2.3 µM | – | – | 1.7 | 1 | Cc1ccc(S(=O)(=O)c2ccccc2)cc1S(=O)(=O)NC1CCN(C(=O)NC(C)(C)C)CC1 [Example 490, N-(tert-butyl)-4-({[2-methyl-5-(phenylsulfonyl)phenyl]sulfonyl}amino)piperidine-1-carboxamide]
21 | 1.4 µM | – | – | 1.9 | 1 | Cc1ccc(S(=O)(=O)c2ccccc2)cc1S(=O)(=O)NC1CCN(C(=O)c2ccc3ccccc3c2)CC1 [Example 496, 2-methyl-N-[1-(2-naphthoyl)piperidin-4-yl]-5-(phenylsulfonyl)benzenesulfonamide]
22 | 1.3 µM and 1.7 µM | – | – | 2.4 | 1 | Cc1ccc(S(=O)(=O)c2ccccc2)cc1S(=O)(=O)NC1CCN(C(=O)c2cccs2)CC1 [Example 497, 2-methyl-5-(phenylsulfonyl)-N-[1-(2-thienylcarbonyl)piperidin-4-yl]benzenesulfonamide]
23 | 2.2 µM | – | – | 1.8 | 1 | Cc1ccc(S(=O)(=O)c2ccccc2)cc1S(=O)(=O)NC1CCN(C(=O)OCC(C)C)CC1 [Example 498, isobutyl 4-({[2-methyl-5-(phenylsulfonyl)phenyl]sulfonyl}amino)piperidine-1-carboxylate]
24 | 0.9 µM | – | – | 2.4 | 1 | Cc1ccc(S(=O)(=O)c2ccccc2)cc1S(=O)(=O)NC1CCN(C(=O)c2ccc(N(C)C)cc2)CC1 [Example 499, N-{1-[4-(dimethylamino)benzoyl]piperidin-4-yl}-2-methyl-5-(phenylsulfonyl)benzenesulfonamide]
25 | 4 µM | – | – | 2.5 | 0.9 | CCNC(=O)N1CCC(NS(=O)(=O)c2cc(S(=O)(=O)c3ccccc3)ccc2C)CC1 [Example 501, N-ethyl-4-({[2-methyl-5-(phenylsulfonyl)phenyl]sulfonyl}amino)piperidine-1-carboxamide]
26 | 3 µM | – | – | 2.9 | 1 | Cc1ccc(S(=O)(=O)c2ccccc2)cc1S(=O)(=O)NC1CCN(C(=O)N2CCOCC2)CC1 [Example 502, 2-methyl-N-[1-(morpholin-4-ylcarbonyl)piperidin-4-yl]-5-(phenylsulfonyl)benzenesulfonamide]
27 | 2.4 µM | – | – | 2.7 | 0.9 | Cc1ccc(S(=O)(=O)c2ccccc2)cc1S(=O)(=O)NC1CCN(C(=O)N(C)C)CC1 [Example 503, N,N-dimethyl-4-({[2-methyl-5-(phenylsulfonyl)phenyl]sulfonyl}amino)piperidine-1-carboxamide]

From patent US20060276464A1, “Diarylsulfone sulfonamides and use thereof” (Wyeth, priority 2005, published 2006)
